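Each compound was tested at five concentrations against cells in 96-well plates for 48 hours. At the TGI there is no net growth.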 *1 amine or outer side, *2 acyl side, *3 side chain or, on linkers, in order; H or OH if unused. Where a SMILES comes first, the peptide text is derived from it. [ ]: non-standard residue; d: D form. The star is where a group is joined. X31 = CC(=O)N(C)SCC(N[*:1])C(=O)[*:2]; Cbz = O=C(OCc1ccccc1)*; Bn = c1ccc(C*)cc1
Experiments:
Experiment in all cases: inhibition of tumour cell growth, NCI panel, 48 h
CAKI-1 renal = tested on: CAKI-1 renal
COLO 205 colon = tested on: COLO 205 colon
HL-60(TB) leukemia = tested on: HL-60(TB) leukemia
HS 578T breast = tested on: HS 578T breast
HT29 colon = tested on: HT29 colon
LOX IMVI melanoma = tested on: LOX IMVI melanoma
MOLT-4 leukemia = tested on: MOLT-4 leukemia
NCI-H226 lung = tested on: NCI-H226 lung
NCI/ADR-RES ovarian = tested on: NCI/ADR-RES ovarian
OVCAR-4 ovarian = tested on: OVCAR-4 ovarian
OVCAR-5 ovarian = tested on: OVCAR-5 ovarian
RXF 393 renal = tested on: RXF 393 renal
SF-268 CNS = tested on: SF-268 CNS
SF-539 CNS = tested on: SF-539 CNS
SK-MEL-2 melanoma = tested on: SK-MEL-2 melanoma
SK-OV-3 ovarian = tested on: SK-OV-3 ovarian
SNB-75 CNS = tested on: SNB-75 CNS
SW-620 colon = tested on: SW-620 colon
TK-10 renal = tested on: TK-10 renal
U251 CNS = tested on: U251 CNS

| Structure (SMILES) | TGI (CAKI-1 renal) [µM] | TGI (COLO 205 colon) [µM] | TGI (HL-60(TB) leukemia) [µM] | TGI (HS 578T breast) [µM] | TGI (HT29 colon) [µM] | TGI (LOX IMVI melanoma) [µM] | TGI (MOLT-4 leukemia) [µM] | TGI (NCI-H226 lung) [µM] | TGI (NCI/ADR-RES ovarian) [µM] | TGI (OVCAR-4 ovarian) [µM] | TGI (OVCAR-5 ovarian) [µM] | TGI (RXF 393 renal) [µM] | TGI (SF-268 CNS) [µM] | TGI (SF-539 CNS) [µM] | TGI (SK-MEL-2 melanoma) [µM] | TGI (SK-OV-3 ovarian) [µM] | TGI (SNB-75 CNS) [µM] | TGI (SW-620 colon) [µM] | TGI (TK-10 renal) [µM] | TGI (U251 CNS) [µM] |
| --- | --- | --- | --- | --- | --- | --- | --- | --- | --- | --- | --- | --- | --- | --- | --- | --- | --- | --- | --- | --- |
| c1ccc2c(c1)NC1(N3CCCCC3)CCCCC21 (centres undefined) | > 100 | > 100 | 82.2 | > 100 | > 100 | > 100 | 85.1 | > 100 | > 100 | > 100 | > 100 | 80.2 | > 100 | > 100 | > 100 | > 100 | > 100 | > 100 | > 100 | > 100 |
| C[N+](C)(C)CC(=O)N/N=C/c1ccncc1 | > 100 | > 100 | > 100 | > 100 | > 100 | > 100 | > 100 | > 100 | > 100 | > 100 | > 100 | > 100 | > 100 | > 100 | > 100 | > 100 | > 100 | > 100 | > 100 | > 100 |
| COc1ccc(C2CC3(c4ccccc4)ON=C(c4ccccc4)N3c3ccccc3S2)cc1 (centres undefined) | > 100 | > 100 |  | > 100 | > 100 | > 100 |  | > 100 | > 100 | > 100 | > 100 | > 100 | > 100 | > 100 |  | > 100 | > 100 | > 100 | > 100 | > 100 |
| O=C(c1ccc(Cl)cc1)N(C(=S)OCc1ccccn1)c1ccccc1 | > 100 | > 100 | > 100 | > 100 | > 100 | > 100 | > 100 | > 100 | > 100 |  | > 100 | 56.6 | > 100 | > 100 | > 100 | > 100 |  | > 100 | > 100 | > 100 |
| CC(=O)N(C)SCC(NC(=O)C(Cc1ccccc1)NC(=O)OCc1ccccc1)C(=O)NC(Cc1ccccc1)C(=O)NC(Cc1c[nH]c2ccccc12)C(=O)NC(CCCCNC(=O)OCc1ccccc1)C(=O)NC(C(=O)NC(CSN(C)C(C)=O)C(=O)NC(C(N)=O)C(C)OCc1ccccc1)C(C)OCc1ccccc1 (centres undefined) (Cbz-F[X31]FWK(Cbz)T(Bn)[X31]T(Bn)-NH2; configuration not given here) |  | > 100 | > 100 | > 100 | > 100 | > 100 | > 100 | > 100 | > 100 | > 100 | > 100 | > 100 | > 100 | > 100 | > 100 | > 100 | > 100 | > 100 | > 100 | > 100 |
| CN(c1cn(C2CC[C@@H](CO)O2)c(=O)[nH]c1=O)C1CCCCC1 (some centres undefined) |  | > 100 | > 100 | > 100 | > 100 | > 100 | > 100 | > 100 | > 100 | > 100 | > 100 | > 100 | > 100 | > 100 |  | > 100 | > 100 | > 100 | > 100 | > 100 |
| O=c1cn[nH]c(=S)n1/N=C/c1c[nH]c2ccccc12 | > 100 | > 100 | 49.5 | > 100 | > 100 | 93.2 | > 100 |  | > 100 | > 100 | > 100 |  | > 100 | > 100 | > 100 | > 100 |  | > 100 |  | > 100 |
| O=C(O)CCCc1ccc2ccccc2c1 | > 100 | > 100 | > 100 | > 100 | > 100 | > 100 | > 100 |  | > 100 | > 100 | > 100 | > 100 | > 100 | > 100 | > 100 | > 100 |  | > 100 | > 100 | > 100 |
| FC(F)(Sc1ncc[nH]1)c1nc2ccccc2o1 | > 100 | > 100 |  | > 100 | > 100 |  | > 100 | > 100 | > 100 | > 100 | > 100 | > 100 | > 100 | > 100 | > 100 | > 100 | > 100 | > 100 | > 100 | > 100 |
| COC(=O)CCC(C)C1CCC2C3C(C[C@H](OC(C)=O)[C@]12C)[C@@]1(C)CCC2(C[C@H]1C[C@H]3OC(C)=O)OOC1(CC[C@]3(C)C4C[C@H](OC(C)=O)[C@]5(C)C(C(C)CCC(=O)OC)CCC5C4[C@H](OC(C)=O)C[C@@H]3C1)OO2 (some centres undefined) | > 100 | > 100 | > 100 | > 100 | > 100 | > 100 | > 100 | > 100 | > 100 | > 100 | > 100 | > 100 | > 100 |  | > 100 | > 100 | > 100 | > 100 | > 100 | > 100 |
| O=c1c2cc(Cl)cc(Cl)c2oc2nc3n(c(=O)c12)CCCS3 | > 100 | > 100 |  | > 100 |  |  | > 100 | > 100 | > 100 | > 100 | > 100 | > 100 | > 100 | > 100 | > 100 | > 100 | > 100 | > 100 | > 100 | > 100 |
| CN1CCC2(CC1)C(=NC1CCCCC1)NC(=S)N2c1ccccc1 |  | > 100 | > 100 | 88.3 | > 100 | > 100 | > 100 | > 100 | > 100 | > 100 | > 100 | > 100 | > 100 | > 100 |  | > 100 | > 100 | > 100 | > 100 | > 100 |
| CC1=CC(=O)CC(C)(C)C1/C=C/C(C)=C/C=C/C(C)=C/C=C/C=C(C)/C=C/C=C(C)/C=C/C1=C(C)CC(O)CC1(C)C (centres undefined) | > 100 |  | > 100 | > 100 | > 100 | > 100 | 1.6 | > 100 | > 100 | > 100 | > 100 | 52.7 | > 100 | > 100 | > 100 | > 100 |  | 33.2 | > 100 | > 100 |
| CCOC(=O)c1[nH]cc(C)c1-c1ccc2c(-c3ccccc3)nc3ccccc3n12 | 17.8 | 14.2 |  | 6.5 | 11.9 | 12.3 | 9.25 | 20.1 | 10.3 | 16.1 | 64.5 | 7.22 | 17.1 | 9.04 | 16.8 | 23.5 | 5.87 | 16.5 | 15.2 | 11.8 |
| COC(=O)C1=C(C)C=C(N2CCOCC2)C(C(=O)OC)C1c1ccccc1 (centres undefined) | > 10 | > 10 |  | > 10 | > 10 | > 10 | > 10 | > 10 | > 10 | > 10 | > 10 | > 10 | > 10 | > 10 | > 10 | > 10 | > 10 | > 10 | > 10 | > 10 |
| O=C(O)CC(Sc1ccccc1)c1ccccc1 (centres undefined) | > 100 | > 100 | > 100 | > 100 | > 100 | > 100 | > 100 | > 100 | > 100 | > 100 | > 100 | > 100 | > 100 |  | > 100 | > 100 | > 100 | > 100 | > 100 | > 100 |
| O=C(CCCl)NNC1=NCCCN1 |  | > 100 | > 100 | > 100 | > 100 | > 100 | > 100 | > 100 | > 100 | > 100 | > 100 | > 100 | > 100 | > 100 | > 100 | > 100 | > 100 | > 100 | > 100 | > 100 |
| COc1cc2c(cc1OCCCCOc1cc3c(cc1OC)C(=O)N1CCC[C@H]1C(=O)N3)N=C[C@@H]1CCCN1C2=O | 25.5 | 7.41 | 37.3 | 27.6 | 43.2 | 4.22 | 4.69 | 26.7 | 29 | 27.7 | 33 | 14.8 | 14.8 |  | 20.1 |  | 18.1 | 14.6 | 27.4 | 14 |
| COc1ccc2cc(-c3nc(N)nc(N4N=C(C)CC4(C)C)n3)c(=N)oc2c1 | 38 | 30.8 | 43.9 | 66.4 | 31.7 |  | 33.7 | 40.6 | > 100 | 50.5 | 41.3 | 58.9 | 33.8 | 30.2 | 35.7 | 53.9 |  |  | 72 | 41.9 |
| CC(C)(C)c1cc2c(O)c(c1)Cc1cc(C(C)(C)C)cc(c1O)Cc1cc(C(C)(C)C)cc(c1O)Cc1cc(C(C)(C)C)cc(c1O)Cc1cc(C(C)(C)C)cc(c1O)Cc1cc(C(C)(C)C)cc(c1O)Cc1cc(C(C)(C)C)cc(c1O)Cc1cc(C(C)(C)C)cc(c1O)C2 | > 50 | > 50 | > 50 | > 50 | > 50 |  | > 50 | > 50 | > 50 | > 50 | > 50 | > 50 | > 50 | > 50 | > 50 | > 50 | > 50 | > 50 | > 50 | > 50 |
| Cc1nnc(N)nc1/C=C/c1c(O)ccc2ccccc12 | > 100 | > 100 | 71.4 | 85 | 87.7 | > 100 | > 100 | 44.5 | > 100 | 61.1 | 78.7 | 36.2 | 96.9 |  | 35.5 | > 100 |  | > 100 | > 100 | > 100 |
| CSc1ncc2c(n1)sc1c(=O)n(-c3ccccc3)cnc12 | > 100 | > 100 |  | > 100 | > 100 | > 100 | > 100 | > 100 | > 100 | > 100 | > 100 | > 100 | > 100 |  | > 100 | > 100 | > 100 | > 100 | > 100 | > 100 |
| COC(=O)[C@H](Cc1ccc(OC(C)(C)C)cc1)N[C@H](C)C(=O)N[C@@H](Cc1ccccc1)C(=O)OCc1ccccc1 | > 100 | > 100 | > 100 | > 100 | > 100 | > 100 | 50 | > 100 | > 100 | > 100 | > 100 | > 100 | > 100 | > 100 |  | > 100 | > 100 | > 100 | > 100 | > 100 |
| OCCOc1ccccc2cccc1-2 | > 100 | > 100 | > 100 | > 100 | > 100 | > 100 |  | > 100 | > 100 | > 100 | > 100 |  | > 100 | > 100 | > 100 | > 100 | > 100 | > 100 | > 100 | > 100 |

— PubChem BioAssay (NCI)
